Drawing on patent US8609666B2, “2-morpholino-pyrido[3,2-D]pyrimidines” (Merck Serono SA, priority 2009, dated 2013), this text covers IC50 for 13 molecules.

One may read the IC50 as the concentration that gives 50% inhibition.

This assay concerns Human recombinant GST-PI3K. The assay can be described thus: PI3K induced-lipid phosphorylation scintillation proximity assay (neomycin-coated SPA beads). It counts as biochemical. As to conditions: amount necessary to achieve 50% inhibition of PI3K; 120 min at room temperature. The text has this: The efficacy of compounds of the invention in inhibiting the PI3K induced-lipid phosphorylation may be tested in the following binding assay. The assay combines the scintillation proximity assay technology (SPA, Amersham) with the capacity of neomycin (a polycationic antibiotic) to bind phospholipids with high affinity and specificity. The Scintillation Proximity Assay is based on the properties of weakly emitting isotopes (such as ^3H, ^125I, ^33P). Coating SPA beads with neomycin allows the detection of phosphorylated lipid substrates after incubation with recombinant PI3K and radioactive ATP in the same well, by capturing the radioactive phospholipids to the SPA beads through their specific binding to neomycin. To a 96 wells MTP containing 10 μl of the test compound of Formula (I) (solubilized in 10% DMSO; to yield a concentration of 100, 25, 5.0, 1.25, 0.312, 0.078, 0.0195, 0.00488, 0.00122 and 0.0003 μM of the test compound), the following assay components are added: 1) 10 μL of lipid micelles 2) […] of Kinase buffer ([^33P]γATP162 μM/300 nCi, MgCl2 2.5 mM, DTT 2.5 mM, Na3VO4 25 μM in Hepes 40 mM, pH 7.4) and 3) 10 μL (100 ng) of Human recombinant GST-PI3K (in Hepes 40 mM, pH 7.4, ethylenglycol 4%). After incubation at room temperature for 120 minutes, with gentle agitation, the reaction is stopped by addition of 200 μL of a solution containing 250 μg of neomycin-coated PVT SPA beads, ATP 60 mM and EDTA 6.2 mM in PBS. The assay is further incubated at room temperature for 60 minutes with gentle agitation to allow binding of phospholipids to neomycin-SPA beads. After precipitation of the neomycin-coated PVT SPA beads for 5 minutes at 1500×g, radioactive PtdIns(3)P is quantified by scintillation counting in a Wallac MicroBeta™ plate counter. The values indicated in Table I below refer to the IC50 (μM) with respect to PI3K, i.e. the amount necessary to achieve 50% inhibition of said target. Said values show a considerable inhibitory potency of pyridopyrimidine compounds with regard to PI3K.

Turning to `COCCN(C)c1cc(C(=O)O)nc2c(-c3ccc(O)cc3)nc(N3CCOCC3)nc12` [Example 3, 4-(4-hydroxy-phenyl)-8-[(2-methoxy-ethyl)-methyl-amino]-2-morpholin-4-yl-pyrido[3,2-d]pyrimidine-6-carboxylic acid], the IC50 is 290 nM.
On to `CN(C)CCN(C)c1cc(C(=O)O)nc2c(-c3cccc4[nH]ccc34)nc(N3CCOCC3)nc12` [Example 57, 8-[[2-(Dimethylamino)ethyl](methyl)amino]-4-(1H-indol-4-yl)-2-morpholin-4-ylpyrido[3,2-d]pyrimidine-6-carboxylic acid], for which the IC50 turned out to be 137 nM.
For `CN(CCO)c1cc(C(=O)O)nc2c(-c3cccc(F)c3O)nc(N3CCOCC3)nc12` [Example 37, 4-(3-Fluoro-2-hydroxyphenyl)-8-[(2-hydroxyethyl)(methyl)amino]-2-morpholin-4-ylpyrido[3,2-d]pyrimidine-6-carboxylic acid] the value was 10 nM; for `CNc1cc(C(=O)O)nc2c(-c3cc(F)ccc3O)nc(N3CCOCC3)nc12` [Example 30, 4-(5-Fluoro-2-hydroxyphenyl)-8-(methylamino)-2-morpholin-4-ylpyrido[3,2-d]pyrimidine-6-carboxylic acid], 304 nM; for `CN(CCO)c1cc(C(=O)O)nc2c(-c3cccc(CO)c3)nc(N3CCOCC3)nc12` [Example 24, 8-[(2-Hydroxy-ethyl)-methyl-amino]-4-(3-hydroxymethyl-phenyl)-2-morpholin-4-yl-pyrido[3,2-d]pyrimidine-6-carboxylic acid], 74 nM.
Regarding `COCCOc1cc(C(=O)O)nc2c(-c3ccc(O)cc3)nc(N3CCOCC3)nc12` [Example 6, 4-(4-Hydroxy-phenyl)-8-(2-methoxy-ethoxy)-2-morpholin-4-yl-pyrido[3,2-d]pyrimidine-6-carboxylic acid], the IC50 turned out to be 2520 nM.
Consider `COCCNc1cc(C(=O)O)nc2c(-c3cccc4[nH]ccc34)nc(N3CCOCC3)nc12` [Example 19, 4-(1H-Indol-4-yl)-8-(2-methoxy-ethylamino)-2-morpholin-4-yl-pyrido[3,2-d]pyrimidine-6-carboxylic acid], for which the 50% inhibitory concentration (IC50) was determined as 128 nM.
The value for `O=C(O)c1cc(NCCO)c2nc(N3CCOCC3)nc(-c3cc(O)cc(F)c3)c2n1` [Example 16, 4-(3-Fluoro-5-hydroxy-phenyl)-8-(2-hydroxy-ethylamino)-2-morpholin-4-yl-pyrido[3,2-d]pyrimidine-6-carboxylic acid] was 64 nM; that for `CS(=O)(=O)c1cc(C(=O)O)nc2c(-c3cc(O)cc(F)c3)nc(N3CCOCC3)nc12` [Example 56, 4-(3-Fluoro-5-hydroxyphenyl)-8-(methylsulfonyl)-2-morpholin-4-ylpyrido[3,2-d]pyrimidine-6-carboxylic acid] was 15 nM; that for `O=C(O)c1cc(NCCO)c2nc(N3CCOCC3)nc(-c3cccc(CO)c3)c2n1` [Example 48, 8-[(2-Hydroxyethyl)amino]-4-[3-(hydroxymethyl)phenyl]-2-morpholin-4-ylpyrido[3,2-d]pyrimidine-6-carboxylic acid] was 27 nM.
Consider `COCCNc1cc(C(=O)O)nc2c(-c3ccc(CO)cc3)nc(N3CCOCC3)nc12` [Example 46, 4-[4-(Hydroxymethyl)phenyl]-8-[(2-methoxyethyl)amino]-2-morpholin-4-ylpyrido[3,2-d]pyrimidine-6-carboxylic acid], for which the half-maximal inhibitory concentration (IC50) is 346 nM.
The value for `COc1cccc(-c2nc(N3CCOCC3)nc3ccc(C(=O)O)nc23)c1` [Example 2, 4-(3-Methoxyphenyl)-2-morpholin-4-ylpyrido[3,2-d]pyrimidine-6-carboxylic acid] was 4490 nM; that for `CN(C)c1cc(C(=O)O)nc2c(-c3cccc4[nH]ccc34)nc(N3CCOCC3)nc12` [Example 17, 8-Dimethylamino-4-(1H-indol-4-yl)-2-morpholin-4-yl-pyrido[3,2-d]pyrimidine-6-carboxylic acid] was 132 nM.
